Measured values taken from PubChem BioAssay (NCI).
Values joined by “and” are separate entries in the source; they are usually repeats but may differ in a detail not shown here. Identical values can stand only once.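 Cells were grown in 96-well plates and exposed to each compound for 48 hours at five concentrations; endpoints were interpolated linearly between bracketing concentrations, or set to the highest concentration if not reached. GI50 marks 50% less growth. The concentration for full growth arrest is given as TGI.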

Tests used:
Experiment in all cases: NCI-60 cell line screen, 48 h
[1] = tested on: MDA-MB-435
[2] = tested on: BT-549 breast
[3] = tested on: HCT-116 colon
[4] = tested on: MDA-MB-231 breast
[5] = tested on: UACC-62 melanoma
[6] = tested on: SF-268 CNS
[7] = tested on: MOLT-4 leukemia
[8] = tested on: OVCAR-5 ovarian
[9] = tested on: LOX IMVI melanoma
[10] = tested on: SNB-19 CNS

SMILES | GI50 [1] | TGI [1] | GI50 [2] | TGI [2] | GI50 [3] | TGI [3] | GI50 [4] | TGI [4] | GI50 [5] | TGI [5] | GI50 [6] | TGI [6] | GI50 [7] | TGI [7] | GI50 [8] | TGI [8] | GI50 [9] | TGI [9] | GI50 [10] | TGI [10]
C=C1C(=O)O[C@H]2[C@H]1CC/C(COC(=O)C(=O)c1cn(C)c3ccc(Cl)cc13)=C\CC[C@@]1(C)O[C@@H]21 | 1.27 µM | 3.13 µM | 0.234 µM | 0.618 µM | 1.24 µM | 2.69 µM | 1.03 µM | 4.3 µM | 0.356 µM | 2.08 µM | 1.56 µM | 4.56 µM | 0.494 µM | 4.17 µM | 1.91 µM | 5.82 µM | 0.191 µM | 0.387 µM | 2.16 µM | 6.13 µM
O=C1CC(=O)N(C(=O)c2nn(-c3ccc(Cl)cc3)cc2O)N1 | 0.355 µM | > 100 µM | 0.296 µM | > 64.5 µM | 0.34 µM | > 100 µM | 1.84 µM | > 100 µM | 0.381 µM | 9.41 µM | 0.461 µM | > 100 µM | 0.403 µM | > 41.7 µM | 4.17 µM | > 100 µM | 1.15 µM | > 100 µM | 0.5 µM | > 100 µM
O=c1ccs[nH]1 | – | 31 µM | – | 40.3 µM | – | 38.3 µM | – | 28.6 µM | – | 39.8 µM | – | 35.4 µM | – | 25 µM | – | 36.3 µM | – | 18.4 µM | – | > 89.1 µM
CCOC(=O)NC1C2CC(=O)OC(O2)C1OC(C)=O (stereo not given) | > 100 µM | > 100 µM | > 100 µM | > 100 µM | – | > 100 µM | > 100 µM | > 100 µM | – | > 100 µM | – | > 100 µM | – | > 100 µM | – | > 100 µM | – | > 100 µM | – | > 100 µM
C[C@]12CC[C@@H]3c4cc(-c5ccc(F)cc5)c(O)cc4CC[C@H]3[C@@H]1CC[C@@H]2O | 11.8 µM | 28.6 µM | 6.51 µM | 23.3 µM | 5.65 µM | 22 µM | 7.86 µM | 23.9 µM | 12 µM | 25.2 µM | 7.29 µM | 27.8 µM | 4.88 µM | 18.3 µM | 19.1 µM | 39.2 µM | 9.88 µM | 22.1 µM | 9.61 µM | 22.6 µM
N#Cc1ccc2c(c1)C(=O)c1c-2n(CCCCl)c(=O)c2cc([N+](=O)[O-])ccc12 | > 100 µM | > 100 µM | 2.28 µM | 23.5 µM | 1.82 µM | > 100 µM | 77.5 µM | > 100 µM | 1.13 µM | 9.96 µM | 1.49 µM | > 100 µM | 1.34 µM | 5.26 µM | 65.4 µM | > 100 µM | 2.28 µM | 14.8 µM | 3.39 µM | > 100 µM
NC1CCC(Nc2nc(NCc3ccc(-c4ccccc4O)nc3)c3ncn(C4CCCC4)c3n2)CC1 (stereo not given) | 0.0119 µM | 1.17 µM | 0.0998 µM | 0.623 µM | 0.0317 µM | 1.15 µM | < 0.0105 µM | 0.895 µM | < 0.0174 µM | 0.0593 µM | < 0.01 µM | 0.344 µM | < 0.01 µM | 0.213 µM | 0.0322 µM | 1.38 µM | – | – | < 0.0147 µM | 1.32 µM
C[C@]12CC[C@H](OC3OC(CO)C(O)C(O)C3O)C[C@H]1CC[C@@H]1[C@@H]2CC[C@]2(C)[C@@H](C3=CCOC3=O)CC[C@]12O (stereo not given in full) | – | > 100 µM | – | > 100 µM | > 100 µM and 51.3 µM | 50 µM and > 100 µM | – | > 100 µM | – | 30.8 µM and > 100 µM | > 100 µM and 27.1 µM | 50 µM and > 100 µM | 22.5 µM and > 100 µM | 50 µM and > 100 µM | > 100 µM | > 100 µM | > 100 µM | 25.3 µM and > 100 µM | 23.4 µM and > 100 µM | 50 µM and > 100 µM
O=C(O)CCCSc1ccccc1 | – | > 100 µM | – | > 100 µM | – | > 100 µM | – | > 100 µM | – | > 100 µM | – | > 100 µM | – | > 100 µM | – | > 100 µM | – | > 100 µM | – | > 100 µM
COc1ccc(-c2cc(-c3ccc(Cl)cc3)nc(SCCCC(=O)NO)n2)cc1 | 1.21 µM | 3.19 µM | 2.46 µM | 28.6 µM | 0.563 µM | > 100 µM | 1.22 µM | 5.3 µM | 0.853 µM | 2.22 µM | 1.15 µM | 4.27 µM | 0.796 µM | > 22 µM | 1.37 µM | 6.92 µM | 0.153 µM | 1.32 µM | 2.18 µM | > 27.1 µM
CNC(=S)NC(=O)c1c(Cl)n(C(=O)OC(C)(C)C)c2ccccc12 | 44 µM | > 100 µM | 53.2 µM | > 100 µM | 38.5 µM | > 100 µM | 33.7 µM | > 100 µM | 56.2 µM | > 100 µM | 72.8 µM | > 100 µM | – | – | 73.8 µM | > 100 µM | 30 µM | > 100 µM | 79.9 µM | > 100 µM
c1cc(N2CCCN(c3ccc(C4=NCCCN4)cc3)CC2)ccc1C1=NCCCN1 | > 100 µM | > 100 µM | > 100 µM | > 100 µM | > 100 µM | > 100 µM | – | – | 68.1 µM | > 100 µM | > 100 µM | > 100 µM | > 100 µM | > 100 µM | > 100 µM | > 100 µM | > 100 µM | > 100 µM | > 100 µM | > 100 µM
O=c1cc(N2CCN(CCCCCOc3cc(O)c4c(=O)cc(-c5ccccc5)oc4c3)CC2)c2ccccc2o1 | 47.2 µM | > 100 µM | 57.9 µM | > 100 µM | 25.4 µM | > 100 µM | 13.1 µM | > 100 µM | 36.2 µM | > 100 µM | > 100 µM | > 100 µM | – | – | > 100 µM | > 100 µM | 51.2 µM | > 100 µM | > 100 µM | > 100 µM
CC(=C/C=C/C=C(C)\C=C\C=C(\C)C(=O)O)/C=C/C=C(/C)C(=O)O | – | > 100 µM | – | > 100 µM | – | > 100 µM | – | > 100 µM | – | > 100 µM | – | > 100 µM | – | > 100 µM | – | > 100 µM | – | > 100 µM | – | –
